Tests used:
Assay type in all cases: biochemical
[1] = target: T1, ABL1 G250E (Homo sapiens, UniProt P00519, G250E); assay: Kinase Selectivity Assay; conditions: read-out: Percent Inhibition at 1 μM; further: ATP at apparent Km or 100 µM
T1 construct: purchased Invitrogen, Carlsbad, Calif
Description: (§1) Compounds were assayed for inhibitory activity against a panel of different kinase enzymes at a concentration of 1 μM. Where appropriate, full-length enzymes or catalytically active fragments, with N-terminal or C-terminal His- or GST-tags, were used (Invitrogen, Carlsbad, Calif.). Test compounds were initially diluted to 100× test concentration in 100% DMSO. This 100× concentration was then diluted to a 4× working concentration in Kinase Buffer (50 mM HEPES pH 7.5, 0.01% Brij-35, 10 mM MgCl2, 1 mM EGTA) and 2.5 μL was then added to a low volume NBS, 384-well plate (Corning, Corning, N.Y.). Five μL of a 2× peptide/kinase mixture (Invitrogen, Carlsbad, Calif.), as appropriate (listed in Table 3), was then added and the reaction was then initiated by addition of 2.5 μL of a 4× working concentration of ATP in Kinase Buffer.

[2] = target: T2, ABL1 Y253F (Homo sapiens, UniProt P00519, Y253F); assay: Kinase Selectivity Assay; conditions: read-out: Percent Inhibition at 1 μM; further: ATP at apparent Km or 100 µM
T2 construct: purchased Invitrogen, Carlsbad, Calif
Description: as §1

[3] = target: T3, FGFR1 (Homo sapiens, UniProt P11362); assay: Kinase Selectivity Assay; conditions: read-out: Percent Inhibition at 1 μM; further: ATP at apparent Km or 100 µM
T3 construct: purchased Invitrogen, Carlsbad, Calif
Description: as §1

[4] = target: T4, SYK (Homo sapiens, UniProt P43405); assay: Kinase Selectivity Assay; conditions: read-out: Percent Inhibition at 1 μM
T4 construct: purchased Invitrogen, Carlsbad, Calif
Description: as §1

[5] = target: T5, recombinant human Flt3, residues 564-end (Homo sapiens, UniProt P36888); assay: Flt3 Kinase Inhibition Assay; conditions: read-out: inhibition of Flt3 at a concentration of 1 μM; 1 μM compound; 33P-ATP filter assay
T5 construct: recombinant human Flt3, residues 564-end; GST (N); purchased Upstate USA Inc, Charlottesville, Va
Description: Compounds were assayed for Flt3 kinase inhibitory activity using N-terminal GST-tagged recombinant human Flt3, residues 564-end (Upstate USA Inc, 706 Forest Street, Charlottesville, Va.). Serial dilutions of compound were assayed in a final reaction volume of 25 μL by incubating a solution of the above Flt3 kinase (5-10 mU), 8 mM MOPS (3-(N-morpholino) propanesulfonic acid) pH 7.0, 0.2 mM EDTA (ethylenediamine tetracetic acid), 50 μM amino acid sequence [sequence] (SEQ ID NO: 1)(Upstate USA Inc, 706 Forest Street, Charlottesville, Va.), and 10 mM magnesium acetate and [γ-^33P-ATP] (specific activity of about 500 cpm/pmol, concentration as required). The reaction was initiated by the addition of the magnesium acetate and [γ-^33P-ATP] mixture. After incubation for 40 minutes at room temperature, the reaction was stopped bythe addition of 5 μL of a 3% phosphoric acid solution. A 10 μL aliquote of the reaction was then spotted onto a P30 filtermat (PerkinElmer, Wellesley, Mass.) and washed three times for five minutes in 75 mM phosphoric acid and once in methanol prior to drying and scintillation counting. Inhibition of Flt3 activity was determined by comparison to assays that contained no inhibitor.

[6] = target: T6, recombinant human KDR, residues 790-end (Homo sapiens, UniProt P35968); assay: KDR Kinase Inhibition Assay; conditions: read-out: inhibition of KDR at a concentration of 1 μM
T6 construct: recombinant human KDR, residues 790-end; His6 (N); purchased Upstate USA Inc, Charlottesville, Va
Description: Compounds were assayed for KDR kinase inhibitory activity using N-terminal His6-tagged recombinant human KDR, residues 790-end (Upstate USA Inc, 706 Forest Street, Charlottesville, Va.). Serial dilutions of compound were assayed in a final reaction volume of 25 μL by incubating a solution of the above KDR kinase (5-10 mU), 8 mM MOPS (3-(N-morpholino) propanesulfonic acid) pH 7.0, 0.2 mM EDTA (ethylenediamine tetracetic acid), 0.33 mg/mL myelin basic protein (Upstate USA Inc, 706 Forest Street, Charlottesville, Virginia), and 10 mM magnesium acetate and [γ-^33P-ATP] (specific activity of about 500 cpm/pmol, concentration as required). The reaction was initiated by the addition of the magnesium acetate and [γ-^33P-ATP] mixture. After incubation for 40 minutes at room temperature, the reaction was stopped by the addition of 5 μL of a 3% phosphoric acid solution. A 10 μL aliquote of the reaction was then spotted onto a P30 filtermat (PerkinElmer, Wellesley, Mass.) and washed three times for five minutes in 75 mM phosphoric acid and once in methanol prior to drying and scintillation counting. Inhibition of KDR activity was determined by comparison to assays that contained no inhibitor.

[7] = target: SRC (Homo sapiens, UniProt P12931); assay: Src Kinase Inhibition Assay; parameters: His (N); purchased Upstate USA Inc, Charlottesville, Va; conditions: read-out: inhibition of Src at a concentration of 1 μM; 1 μM compound; 33P-ATP filter assay
Description: Compounds were assayed for Src kinase inhibitory activity using N-terminal His-tagged human Src (Upstate USA Inc, 706 Forest Street, Charlottesville, Va.).

T3 sequence (P11362 22-822): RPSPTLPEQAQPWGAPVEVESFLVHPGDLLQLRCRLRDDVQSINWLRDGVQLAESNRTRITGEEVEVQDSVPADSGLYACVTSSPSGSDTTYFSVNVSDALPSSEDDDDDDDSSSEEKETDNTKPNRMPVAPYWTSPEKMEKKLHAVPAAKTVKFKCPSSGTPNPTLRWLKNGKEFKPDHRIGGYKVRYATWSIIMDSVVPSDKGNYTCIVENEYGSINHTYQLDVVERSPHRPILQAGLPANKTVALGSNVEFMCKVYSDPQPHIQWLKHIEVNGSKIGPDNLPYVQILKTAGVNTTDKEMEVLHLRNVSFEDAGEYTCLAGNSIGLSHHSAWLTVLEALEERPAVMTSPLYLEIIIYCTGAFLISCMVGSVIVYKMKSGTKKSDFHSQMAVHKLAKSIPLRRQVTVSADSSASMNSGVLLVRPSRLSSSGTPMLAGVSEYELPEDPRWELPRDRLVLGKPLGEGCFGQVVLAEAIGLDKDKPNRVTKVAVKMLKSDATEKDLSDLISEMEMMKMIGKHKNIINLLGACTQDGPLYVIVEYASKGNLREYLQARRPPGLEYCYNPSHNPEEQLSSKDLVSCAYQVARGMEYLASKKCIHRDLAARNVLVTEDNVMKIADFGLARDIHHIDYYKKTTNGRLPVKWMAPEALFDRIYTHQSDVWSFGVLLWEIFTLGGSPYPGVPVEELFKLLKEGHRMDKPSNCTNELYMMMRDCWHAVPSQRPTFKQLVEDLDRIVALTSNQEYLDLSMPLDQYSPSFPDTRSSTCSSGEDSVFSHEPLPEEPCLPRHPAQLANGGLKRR
T5 sequence (P36888 564-993 limits assumed): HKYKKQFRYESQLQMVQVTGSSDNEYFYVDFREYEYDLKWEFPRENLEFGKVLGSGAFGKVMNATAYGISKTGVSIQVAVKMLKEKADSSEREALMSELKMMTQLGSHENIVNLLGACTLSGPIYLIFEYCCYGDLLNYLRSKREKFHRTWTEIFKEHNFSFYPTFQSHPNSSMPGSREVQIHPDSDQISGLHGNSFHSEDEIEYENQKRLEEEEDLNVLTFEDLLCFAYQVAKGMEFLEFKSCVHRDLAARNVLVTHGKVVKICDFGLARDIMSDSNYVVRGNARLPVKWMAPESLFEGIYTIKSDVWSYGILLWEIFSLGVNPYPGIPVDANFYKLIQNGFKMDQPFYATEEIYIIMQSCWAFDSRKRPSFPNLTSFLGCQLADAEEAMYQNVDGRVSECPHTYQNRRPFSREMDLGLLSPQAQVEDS
Chain of SRC (P12931 whole entry): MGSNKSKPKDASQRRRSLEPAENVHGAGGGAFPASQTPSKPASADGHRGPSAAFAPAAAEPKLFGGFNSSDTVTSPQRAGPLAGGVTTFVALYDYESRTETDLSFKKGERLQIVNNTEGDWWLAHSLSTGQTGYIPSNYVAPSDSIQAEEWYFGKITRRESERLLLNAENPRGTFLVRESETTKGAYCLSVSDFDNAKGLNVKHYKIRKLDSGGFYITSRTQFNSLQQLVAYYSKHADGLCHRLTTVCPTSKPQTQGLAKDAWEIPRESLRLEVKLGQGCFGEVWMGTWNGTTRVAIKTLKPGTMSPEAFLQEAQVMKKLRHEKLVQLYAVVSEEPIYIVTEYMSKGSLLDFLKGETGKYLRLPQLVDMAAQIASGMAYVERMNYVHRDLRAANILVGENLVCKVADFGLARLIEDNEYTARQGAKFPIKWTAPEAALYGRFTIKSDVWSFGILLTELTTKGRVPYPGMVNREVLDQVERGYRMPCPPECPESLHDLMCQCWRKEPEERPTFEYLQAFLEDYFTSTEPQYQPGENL
T6 sequence (P35968 790-1356 limits assumed): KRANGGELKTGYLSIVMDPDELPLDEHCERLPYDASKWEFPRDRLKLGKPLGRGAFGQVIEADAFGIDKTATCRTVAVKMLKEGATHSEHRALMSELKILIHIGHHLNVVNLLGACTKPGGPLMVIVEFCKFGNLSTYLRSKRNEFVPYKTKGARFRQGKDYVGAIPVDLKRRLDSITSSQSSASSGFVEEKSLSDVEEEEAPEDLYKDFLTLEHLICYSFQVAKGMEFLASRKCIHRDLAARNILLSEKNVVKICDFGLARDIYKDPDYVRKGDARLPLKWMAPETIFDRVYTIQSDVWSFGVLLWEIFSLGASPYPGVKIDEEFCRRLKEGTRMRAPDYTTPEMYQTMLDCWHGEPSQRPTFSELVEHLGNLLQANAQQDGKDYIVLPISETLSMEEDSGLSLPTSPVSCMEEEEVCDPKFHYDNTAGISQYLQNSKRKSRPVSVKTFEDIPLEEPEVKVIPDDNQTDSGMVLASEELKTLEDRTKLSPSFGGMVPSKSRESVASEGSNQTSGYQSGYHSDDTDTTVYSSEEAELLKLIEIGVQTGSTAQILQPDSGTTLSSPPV

Row | inhibition at 1 µM [1] [%] | inhibition at 1 µM [2] [%] | inhibition at 1 µM [3] [%] | inhibition at 1 µM [4] [%] | SMILES | inhibition at 1 µM [5] [%] | inhibition at 1 µM [6] [%] | inhibition at 1 µM [7] [%]
1 | 60 | 57 | 46 | 88 | Cc1cc(Nc2nc(/C=C/c3ccccc3)nc(N3CCN(C)CC3)c2N)[nH]n1 [Example 10, 6-(4-methylpiperazin-1-yl)-N-(3-methyl-1H-pyrazol-5-yl)-2-[(E)-2-phenylvinyl]pyrimidin-4,5-diamine] | – | – | –
2 | – | – | – | – | Cc1cc(Nc2cc(N3CCN(C)CC3)nc(/C=C/c3ccccc3)n2)n[nH]1 [Example 31, 6-(4-methylpiperazin-1-yl)-N-(3-methyl-1H-pyrazol-5-yl)-2-[(E)-2-phenylvinyl]pyrimidin-4-amine] | ~96 | ~94 | ~95

From patent US7563787B2, “Substituted pyrazole compounds” (Miikana Therapeutics, Inc., priority 2005, dated 2009)
